From US6281354A, “Analogs of duocarmycin and cc-1065” (The Scripps Research Institute, priority 1999, dated 2001)
Read-outs that look alike come from different tables or passages of the source.

Assays:
w794 DNA [1] = assay: Relative rates of DNA alkylation for (+)-1, 53 and 54 at the w794 5'-AATTA site; type: biochemical, SV40; conditions: for concentration dependence of the rate of DNA alkylation: 10^-4 -10^-6 M
Experimental: Modifications in the Trimethoxyindole Subunit: Role of the Methoxy Substituents. DNA alkylation by the natural enantiomers of 53-56 were compared with that of 1 in w794 DNA.
Relative Rates of DNA Alkylation for (+)-1, 53, and 54. Following the procedure detailed above, Eppendorf tubes containing 5' end-labeled w794 DNA (9 μL) in TE buffer (pH 7.5) were treated with (+)-duocarmnycin SA, 53, or 54 (1 μL, 10^-5 M in DMSO). […] The solutions were mixed and incubated at 25° C. for 1, 3, 6, 12, 24, 48, and 72 h, respectively. Subsequent isolation of the alkylated DNA by EtOH precipitation, resuspension in TE buffer (10 μL, pH 7.5), thermolysis (30 min, 100° C.), concurrent PAGE, and autoradiography were conducted as detailed above. The relative rate for the alkylation at the 5'-AATTA site was derived from the slopes of the plots of percent integrated optical density (IOD) of the high affinity alkylation site cleavage bands versus time.

w794 DNA [2] = assay: DNA alkylation (thermal strand cleavage, PAGE) within w794 DNA; type: biochemical, SV40
w836 DNA = assay: DNA alkylation sites and relative rates within the six-base A sequence (5'-AAAAAA) of w836 DNA; type: biochemical, SV40; conditions: for alkylated adenines within six-base A-rich sequence of w836 DNA / AT-rich binding site covered in w836 DNA: 5'-AAAAAA
[3] = tested on: duplex DNA (w794, w836, c988, c820, c1346); type: biochemical, SV40; conditions: for sequence preference at the alkylation site: consensus alkylation sequence; for alkylation of individual three-base sequences: 5'-TTA or 5'-ATA
w794 DNA [4] = conditions: pH 7.5, earlier studies; cited from earlier work
w794 DNA [5] = assay: Rate of DNA alkylation at the single w794 high affinity site: pH and buffer dependence; type: biochemical, SV40
Experimental: Rate of DNA Alkylation: pH Dependence. […] Because this was conducted using w794 DNA additionally containing >7000 base-pairs and multiple binding sites within the unlabeled portion of the DNA, the comparisons were conducted at concentrations that provide saturated binding and restrict the kinetic analysis to the pseudo-first order rate constant for alkylation. […] The relative lack of dependence on the acid concentration (pH) especially in the most relevant pH range of 7-8 in conjunction with the observations made in the accompanying paper has led us to propose an alternative source of reaction catalysis.
Relative Rates of DNA Alkylation for (+)-1 at pH 6-8. Eppendorf tubes containing 5' end-labeled w794 DNA (9 μL) in phosphate buffer (10 mM) at pH 6.0, 6.6, 7.1, 7.6, and 8.1 were prepared. The solutions at each pH were treated with (+)-duocarmycin SA (1μL, 10^-6 M in DMSO), mixed and incubated at 25° C. for 0.5, 1.0, 1.5, 2.0 and 3.0 h. […] The reactions were stopped at each time interval by EtOH precipitation of the DNA. The alkylated DNA was resuspended in TE buffer (10 μL, pH 7.5) and heated at 100° C. for 30 min follwed by PAGE and autoradiography as detailed above.
Since these observations sharply contrast the proposed important role of acid catalysis for activation of the agents toward DNA alkylation which has served as the basis for one prominent proposal for the origin of the DNA alkylation selectivity, we have examined in detail the pH dependence of the rate of DNA alkylation for duocarmycin SA (1) and CCBI-TMI over a physiologically relevant range. […] Between pH 6-7, the slope of the plot of pH versus log κobs was 0.2-0.3, far lower than that of 1.0 required of a first-order dependence on acid concentration.

[6] = In vitro cytotoxic activity
[7] = natural enantiomers, 25° C., 24 h
[8] = 5×10^-6 M agent (so in the source), 25° C., w836 5'-AAAAAA

COC(=O)c1cc2c([nH]1)C(=O)C=C1N(C(=O)c3cc4ccccc4[nH]3)CC3CC123 (single isomer, unassigned) [compound 53, Methyl 2-[(Indol-2-yl)carbonyl]-1,2,8,8a-tetrahydrocyclopropa[c]pyrrolo[3,2-e]indol-4-one-6-carboxylate]
concentration dependence of the rate of DNA alkylation (w794 DNA [1]): independent of agent concentration
less effective at DNA alkylation than duocarmycin SA (w794 DNA [2]; (+) enantiomer): 6-10 ×
less efficient DNA alkylation than 1 (w794 DNA [2]; [7]): 20 ×

COC(=O)c1cc2c([nH]1)C(=O)C=C1N(C(=O)c3cc4cc(OC)ccc4[nH]3)CC3CC123 (single isomer, unassigned) [compound 54, Methyl 2-[(5-Methoxyindol-2-yl)carbonyl]-1,2,8,8a-tetrahydrocyclopropa[c]pyrrolo[3,2-e]indol-4-one-6-carboxylate]
concentration dependence of the rate of DNA alkylation (w794 DNA [1]): independent of agent concentration
relative rate of DNA alkylation κrel versus 53 (w794 DNA [1]; 10^-5 M, 25° C., 1-72 h, 5'-d(AATTA)): 18-33
DNA alkylation compared with duocarmycin SA (1), in words (w794 DNA [2]; [7]): essentially indistinguishable from 1

COC(=O)c1cc2c3c(ccc2[nH]1)N(C(=O)c1cc2c([nH]1)C(=O)C=C1N(C(=O)c4cc5c6c(ccc5[nH]4)N(C(N)=O)CC6)CC4CC124)CC3 (single isomer, unassigned) [ent-(-)-30]
alkylated adenines within six-base A-rich sequence of w836 DNA (w836 DNA): alkylated those central to the sequence
sequence preference at the alkylation site [3]: 5'-AAA>5'-AAT≥5'TAA>5 TAT

COC(=O)c1cc2c([nH]1)C(=O)C=C1N(C(=O)c3cc4c5c(ccc4[nH]3)N(C(=O)c3cc4c6c(ccc4[nH]3)N(C(N)=O)CC6)CC5)CC3CC123 (single isomer, unassigned) [ent-(-)-DSA-CDPI2]
AT-rich binding site covered in w836 DNA (w836 DNA): 5 base-pair
alkylated adenines within six-base A-rich sequence of w836 DNA (w836 DNA): 5' terminal adenines
time required to approach the same level of DNA alkylation as (+)-DSA-CDPI2 (w836 DNA; 5×10^6 M agent (so in the source), 25° C., w836 5'-AAAAAA): 6 h
AT-rich adenine N3 alkylation selectivity (size of site) [3]: 5 base-pair
high affinity alkylation site in w794 DNA (w794 DNA [2]): 5'-AATTT
high affinity alkylation site in w794 DNA (w794 DNA [2]; listed as (-)-DSA-CDPI2): 5'-AATTT

COC(=O)c1cc2c3c(ccc2[nH]1)N(C(=O)c1cc2c([nH]1)C(=O)C=C1N(C(=O)c4cc5c6c(ccc5[nH]4)N(C(N)=O)CC6)CC4CC124)CC3 (single isomer, unassigned; (+)) [(+)-30]
alkylated adenines within six-base A-rich sequence of w836 DNA (w836 DNA): alkylated those central to the sequence
AT-rich adenine N3 alkylation selectivity (size of site) [3]: 5 base-pair
sequence preference at the alkylation site [3]: 5'-AAA>5'-AAT≥5'TAA>5 TAT

COC(=O)c1cc2c([nH]1)C(=O)C=C1N(C(=O)c3cc4c5c(ccc4[nH]3)N(C(=O)c3cc4c6c(ccc4[nH]3)N(C(N)=O)CC6)CC5)CC3CC123 (single isomer, unassigned; (+)) [(+)-DSA-CDPI2]
AT-rich binding site covered in w836 DNA (w836 DNA): 5 base-pair
alkylated adenines within six-base A-rich sequence of w836 DNA (w836 DNA): only the 3' adenines
time after which extensive DNA alkylation is exhibited (w836 DNA; [8]): 1 to 5 min
AT-rich adenine N3 alkylation selectivity (size of site) [3]: 5 base-pair
alkylation of individual three-base sequences [3]: unusually effective alkylation of 5'-TTA
sequence preference at the alkylation site [3]: 5'-AAA>5'-TTA>5'-TAA≥5'-ATA
alkylation of the minor w794 site (5'-CAAAG) (w794 DNA [2]): failed to alkylate
high affinity alkylation site in w794 DNA (w794 DNA [2]): 5'-AATTA

COc1cc2cc(C(=O)N3CC4CC45C3=CC(=O)c3ccccc35)[nH]c2c(OC)c1OC (centres unmarked) [CBI-TMI]
relative rate of DNA alkylation at w794 high affinity site (w794 DNA [4]): 1.0 ×

COc1cc2cc(C(=O)N3C[C@H]4C[C@@]45C3=CC(=O)c3ccc(C#N)cc35)[nH]c2c(OC)c1OC [CCBI-TMI]
relative rate of DNA alkylation at w794 high affinity site (w794 DNA [4]): 2.5 ×
change in rate of DNA alkylation over 2 pH units (w794 DNA [5]; 10^-6 M, 25° C., 10 mM phosphate buffer, pH 6.0-8.1): < 3 ×
effect of EDTA on the rate of DNA alkylation (w794 DNA [5]; Tris or phosphate buffer): had or no effect
slope of plot of pH versus log κobs (w794 DNA [5]; pH 6-7): 0.2-0.3
pH dependence of the rate of DNA alkylation (w794 DNA [5]; pH 7-8): the rate dependence on pH essentially disappeared
faster alkylation of w794 high affinity site than (+)-1 (w794 DNA [5]; throughout the pH range): 1.9-2.5 ×

COc1ccc2c(c1)C13CC1CN(C(=O)c1cc4cc(OC)c(OC)c(OC)c4[nH]1)C3=CC2=O (centres unmarked) [MCBI-TMI]
relative rate of DNA alkylation at w794 high affinity site (w794 DNA [4]): 1.9 ×

COC(=O)c1cc2c3c(ccc2[nH]1)N(C(=O)c1cc2c4c(ccc2[nH]1)N(C(=O)c1cc2c([nH]1)C(=O)C=C1N(C(=O)OC(C)(C)C)CC5CC125)CC4)CC3 (centres unmarked) [compound 20, 6-[7-[Methyl 1,2-Dihydro-(3H-pyrrolo[3,2-e]indole-3-yl)carbonyl-7-carboxylate]1,2-dihydro-(3H-pyrrolo[3,2-e]indole-3-yl)carbonyl]-2-((tert-butyloxy)carbonyl)-1,2,8,8a-tetrahydrocyclopropa[c]pyrrolo[3,2-e]indol-4-one]
alkylated adenines within six-base A-rich sequence of w836 DNA (w836 DNA): the natural enantiomer of 20 alkylated the same sites as ent-(-)-DSA-CDPI2 while the unnatural enantiomer of 20 alkylated the same sites as the natural enantiomer (+)-DSA-CDPI2
time required to reach a detectable and diminished level of DNA alkylation (w836 DNA; 5×10^-6 M agent (so in the source), 25° C., both enantiomers): 72 h
more potent cytotoxicity than simple derivatives N--BOC-DSA (4) and N--Ac-DSA ([6]; natural enantiomers): less than 10 ×
cytotoxic potency of the two enantiomers compared ([6]; natural versus unnatural enantiomer): nearly equipotent

COC(=O)c1cc2c3c(ccc2[nH]1)N(C(=O)c1cc2c([nH]1)C(=O)C=C1N(C(=O)c4cc5c6c(ccc5[nH]4)N(C(N)=O)CC6)CC4CC124)CC3 (centres unmarked) [compound 30]
time after which extensive DNA alkylation is exhibited (w836 DNA; [8]): 1 to 5 min
AT-rich adenine N3 alkylation selectivity (size of site) [3]: 5 base-pair
cytotoxic potency compared with typical agents [6]: essentially equipotent with the typical agents

COC(=O)c1cc2c3c(ccc2[nH]1)N(C(=O)c1cc2c4c(ccc2[nH]1)N(C(=O)c1cc2c([nH]1)C(=O)C=C1N(C(=O)OC(C)(C)C)C[C@@H]5C[C@@]125)CC4)CC3 [ent-(-)-CDPI2 -DSA]
AT-rich adenine N3 alkylation selectivity (size of site) [3]: 5 base-pair
alkylation of individual three-base sequences [3]: under represented alkylation of 5'-ATA
sequence preference at the alkylation site [3]: 5'-AAA>5'-TAA>5'-TTA>5'-ATA
high affinity alkylation site in w794 DNA (w794 DNA [2]): 5'-AATTA
